target: T1, human PAR4 (Homo sapiens, UniProt Q96RI0); test: PAR4 FLIPR assay: antagonism of agonist-peptide-induced calcium mobilization in PAR4-expressing HEK293 cells; type: cell-based; conditions: H-Ala-Phe(4-F)-[…]NH2-induced intracellular calcium mobilization, 11-point curves
T1 construct: expressed in transfected cells; host or cells: HEK293 PAR4 Clone 1.2A (BMS Arctic ID 383940)
T1 sequence (Q96RI0 18-385): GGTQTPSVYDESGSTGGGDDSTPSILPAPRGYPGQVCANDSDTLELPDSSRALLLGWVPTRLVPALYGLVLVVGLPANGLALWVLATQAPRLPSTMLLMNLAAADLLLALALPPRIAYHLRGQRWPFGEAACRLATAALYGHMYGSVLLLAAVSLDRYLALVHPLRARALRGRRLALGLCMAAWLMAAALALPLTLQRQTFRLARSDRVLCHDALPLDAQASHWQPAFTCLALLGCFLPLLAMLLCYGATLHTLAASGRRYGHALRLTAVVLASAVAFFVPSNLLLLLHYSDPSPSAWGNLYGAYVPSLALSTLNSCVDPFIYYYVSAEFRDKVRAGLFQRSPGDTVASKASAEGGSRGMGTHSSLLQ

| SMILES | IC50 |
| --- | --- |
| COc1cnc2c(-c3nc4c(C(O)C(C)(C)C)cc(F)cc4s3)cc(C)cc2n1 (stereo not shown) [Example 806, 1-(6-fluoro-2-(2-methoxy-7-methylquinoxalin-5-yl)benzo[d]thiazol-4-yl)-2,2-dimethylpropan-1-ol] | 6.6 nM |
| COCc1cnc2c(-c3nc4c(C(=O)O)cc(OC)cc4s3)cc(C)cc2n1 [Example 162, 6-methoxy-2-(2-(methoxymethyl)-7-methylquinoxalin-5-yl)benzo[d]thiazole-4-carboxylic acid] | 270 nM |
| COCc1cnc2c(-c3nc4c(C)cc(OC)cc4s3)cc(C)cc2c1 [Example 185, 6-methoxy-2-(3-(methoxymethyl)-6-methylquinolin-8-yl)-4-methylbenzo[d]thiazole] | 6.5 nM |
| COc1cc(F)cc(C(O)c2cc(OC)cc3sc(-c4cc(C)cc5nc(OC)cnc45)nc23)c1 (stereo not shown) [Example 675, (3-fluoro-5-methoxyphenyl)(6-methoxy-2-(2-methoxy-7-methylquinoxalin-5-yl)benzo[d]thiazol-4-yl)methanol] | 10 nM |
| COc1cc(C(O)C2(C)CC2)c2nc(-c3cc(C)cc4nc(OC)cnc34)sc2c1 (stereo not shown) [Example 671, (6-methoxy-2-(2-methoxy-7-methylquinoxalin-5-yl)benzo[d]thiazol-4-yl)(1-methylcyclopropyl)methanol] | 1.9 nM |
| COCc1cccc2nc(-c3cc(C)cc4nc(OC(F)F)cnc34)sc12 [Example 65, 2-(2-(difluoromethoxy)-7-methylquinoxalin-5-yl)-7-(methoxymethyl)benzo[d]thiazole] | 31 nM |
| C=Cc1cc(-c2nc3c(C)cc(OCCNS(=O)(=O)c4ccc(F)cc4)cc3s2)c2ncc(OC)nc2c1 [Example 229, 4-fluoro-N-(2-((2-(2-methoxy-7-vinylquinoxalin-5-yl)-4-methylbenzo[d]thiazol-6-yl)oxy)ethyl)benzenesulfonamide] | 3.9 nM |
| COc1cnc2c(-c3nc4cc(F)c(O[C@@H](C)[C@@H](C)OC(=O)Nc5ccc(F)nc5)cc4s3)cc(Cl)cc2c1 [Example 789, (2R,3S)-3-((2-(6-chloro-3-methoxyquinolin-8-yl)-5-fluorobenzo[d]thiazol-6-yl)oxy)butan-2-yl (6-fluoropyridin-3-yl)carbamate] | 2.4 nM |
| [2H]C([2H])(O)c1c(C)c(OC)cc2sc(-c3cc(C)cc4nc(COC)cnc34)nc12 [Example 325] | 0.7 nM |
| COc1ccc(NC(=O)OCCOc2cc(C)c3nc(-c4cc(CO)cc5nc(OC)cnc45)sc3c2)cn1 [Example 252, 2-((2-(7-(hydroxymethyl)-2-methoxyquinoxalin-5-yl)-4-methylbenzo[d]thiazol-6-yl)oxy)ethyl (6-methoxypyridin-3-yl)carbamate] | 0.5 nM |
| COc1cnc2c(-c3nc4c(C)cc(OCCNS(=O)(=O)c5ccc(C)cc5)cc4s3)cc(C)cc2n1 [Example 87, N-(2-(2-(2-methoxy-7-methylquinoxalin-5-yl)-4-methylbenzo[d]thiazol-6-yloxy)ethyl)-4-methylbenzenesulfonamide] | 2 nM |
| COc1cnc2c(-c3cc4cc(OC)c(F)c(Cl)c4o3)cc(C)cc2n1 [Example 122, 5-(7-chloro-6-fluoro-5-methoxybenzofuran-2-yl)-2-methoxy-7-methylquinoxaline] | 3.9 nM |
| COCc1cnc2c(-c3nc4c(C)cc(OCCNS(=O)(=O)c5ccc(F)cc5)cc4s3)cc(C(F)(F)F)cc2n1 [Example 209, 4-fluoro-N-(2-((2-(2-(methoxymethyl)-7-(trifluoromethyl)quinoxalin-5-yl)-4-methylbenzo[d]thiazol-6-yl)oxy)ethyl)benzenesulfonamide] | 1.1 nM |
| COCCOc1ccc2nc(-c3cc(C)cc4nc(OC)cnc34)sc2c1 [Example 77, 2-(2-methoxy-7-methylquinoxalin-5-yl)-6-(2-methoxyethoxy)benzo[d]thiazole] | 130 nM |
| COCc1cnc2c(-c3nc4c(C)cc(OCCNS(=O)(=O)c5ccc(F)cc5)cc4s3)cc(C#N)cc2n1 [Example 232, N-(2-((2-(7-cyano-2-(methoxymethyl)quinoxalin-5-yl)-4-methylbenzo[d]thiazol-6-yl)oxy)ethyl)-4-fluorobenzenesulfonamide] | 0.7 nM |
| COCc1cnc2c(-c3nc4c(OC)cc(F)cc4s3)cc(C)cc2n1 [Example 270, 6-fluoro-4-methoxy-2-(2-(methoxymethyl)-7-methylquinoxalin-5-yl)benzo[d]thiazole] | 17 nM |
| COCc1cnc2c(-c3cc4cc(OC)c(F)c(Cl)c4o3)cc(C)cc2n1 [Example 121, 5-(7-chloro-6-fluoro-5-methoxybenzofuran-2-yl)-2-(methoxymethyl)-7-methylquinoxaline] | 0.7 nM |
| COCc1cnc2c(-c3nc4c(Cl)cncc4s3)cc(C)cc2n1 [Example 149, 7-chloro-2-(2-(methoxymethyl)-7-methylquinoxalin-5-yl)thiazolo[5,4-c]pyridine] | 4.2 nM |
| Cc1cc(-c2nc3cccc(NC(=O)OC4CCOCC4)c3s2)c2ncc(OC(F)F)nc2c1 [Example 21, tetrahydro-2H-pyran-4-yl (2-(2-(difluoromethoxy)-7-methylquinoxalin-5-yl)benzo[d]thiazol-7-yl)carbamate] | 3.3 nM |

Next, values leading:

| IC50 | SMILES |
| --- | --- |
| 1.3 nM | COc1cnc2c(-c3nc4cc(F)c(O[C@@H](C)[C@@H](C)OC(=O)Nc5ccc(C(=O)N6CCOC[C@@H]6CO)nc5)cc4s3)cc(C)cc2n1 [Example 487, (2R,3S)-3-((5-fluoro-2-(2-methoxy-7-methylquinoxalin-5-yl)benzo[d]thiazol-6-yl)oxy)butan-2-yl (6-((S)-3-(hydroxymethyl)morpholine-4-carbonyl)pyridin-3-yl)carbamate] |
| 5 nM | [2H]C([2H])(O)c1ncc(NC(=O)O[C@H](C)[C@H](C)Oc2cc3sc(-c4cc(C)cc5nc(OC)cnc45)nc3cc2F)cn1 [Example 528, (2R,3S)-3-((5-fluoro-2-(2-methoxy-7-methylquinoxalin-5-yl)benzo[d]thiazol-6-yl)oxy)butan-2-yl (2-(hydroxymethyl)pyrimidin-5-yl)carbamate] |
| 5.2 nM | CCOc1cnc2c(-c3nc4cc(F)c(O[C@@H](C)[C@@H](C)OC(=O)Nc5cnc([C@H](C)O)nc5)cc4s3)cc(C)cc2n1 [Example 535, (2R,3S)-3-((2-(2-ethoxy-7-methylquinoxalin-5-yl)-5-fluorobenzo[d]thiazol-6-yl)oxy)butan-2-yl (2-((S)-1-hydroxyethyl)pyrimidin-5-yl)carbamate] |
| 1.6 nM | COc1cnc2c(-c3nc4cc(F)c(O[C@@H](C)[C@@H](C)OC(=O)Nc5ccc(C(N)=O)nc5)cc4s3)cc(Cl)cc2n1 [Example 833, (2R,3S)-3-((2-(7-chloro-2-methoxyquinoxalin-5-yl)-5-fluorobenzo[d]thiazol-6-yl)oxy) butan-2-yl (6-carbamoylpyridin-3-yl)carbamate] |
| 3.1 nM | COc1cnc2c(-c3nc4cc(F)c(O[C@@H](C)[C@@H](C)OC(=O)Nc5cnc(C(F)(F)F)nc5)cc4s3)cc(C)cc2n1 [Example 415, (2R,3S)-3-((5-fluoro-2-(2-methoxy-7-methylquinoxalin-5-yl)benzo[d]thiazol-6-yl)oxy)butan-2-yl (2-(trifluoromethyl)pyrimidin-5-yl)carbamate] |
| 0.8 nM | COc1cnc2c(-c3nc4cc(F)c(OC[C@@H](C)OC(=O)Nc5ccncc5)nc4s3)cc(C)cc2n1 [Example 680, (R)-1-((6-fluoro-2-(2-methoxy-7-methylquinoxalin-5-yl)thiazolo[5,4-b]pyridin-5-yl)oxy) propan-2-yl pyridin-4-ylcarbamate] |
| 2.5 nM | COc1cnc2c(-c3nc4cc(F)c(O[C@@H](C)[C@@H](C)OC(=O)Nc5cncc(F)c5)nc4s3)cc(Cl)cc2c1 [Example 776, (2R,3S)-3-((2-(6-chloro-3-methoxyquinolin-8-yl)-6-fluorothiazolo[5,4-b]pyridin-5-yl)oxy)butan-2-yl (5-fluoropyridin-3-yl)carbamate] |
| 0.9 nM | COc1cnc2c(-c3nc4cc(F)c(OC[C@@H](C)OC(=O)Nc5ccc(C(=O)N6CCOCC6)nc5)cc4s3)cc(C)cc2n1 [Example 435, (R)-1-((5-fluoro-2-(2-methoxy-7-methylquinoxalin-5-yl)benzo[d]thiazol-6-yl)oxy)propan-2-yl (6-(morpholine-4-carbonyl)pyridin-3-yl)carbamate] |
| 1.6 nM | COc1cnc2c(-c3nc4cc(F)c(OCCOC(=O)Nc5cccnc5)cc4s3)cc(C)cc2n1 [Example 339, 2-((5-fluoro-2-(2-methoxy-7-methylquinoxalin-5-yl)benzo[d]thiazol-6-yl)oxy)ethyl pyridin-3-ylcarbamate] |
| 0.7 nM | COc1cnc2c(-c3nc4cc(F)c(OC[C@@H](C)OC(=O)Nc5ccnc(OCCO)c5)cc4s3)cc(C)cc2n1 [Example 552, (R)-1-((5-fluoro-2-(2-methoxy-7-methylquinoxalin-5-yl)benzo[d]thiazol-6-yl)oxy)propan-2-yl (2-(2-hydroxyethoxy)pyridin-4-yl)carbamate] |
| 0.6 nM | COc1cnc2c(-c3nc4cc(F)c(O[C@@H](C)[C@@H](C)OC(=O)Nc5ccc(C(=O)N6CCC[C@H](O)C6)nc5)cc4s3)cc(C)cc2n1 [Example 481, (2R,3S)-3-((5-fluoro-2-(2-methoxy-7-methylquinoxalin-5-yl)benzo[d]thiazol-6-yl)oxy)butan-2-yl (6-((S)-3-hydroxypiperidine-1-carbonyl)pyridin-3-yl)carbamate] |
| 2.2 nM | COc1cnc2c(-c3nc4ccc(OCCOC(=O)Nc5cccc(C#N)c5)cc4s3)cc(C)cc2n1 [Example 118, 2-((2-(2-methoxy-7-methylquinoxalin-5-yl)benzo[d]thiazol-6-yl)oxy)ethyl (3-cyanophenyl)carbamate] |
